Patent US9359311B2, “Substituted aromatic oligomers” (NEUROSCIOS GMBH, priority 2011, dated 2016)
Where “and” joins values, the source holds several entries; their conditions need not be identical. Identical values can stand only once.

Biological target: T1, biotinylated Aβ1-42 (Homo sapiens, UniProt P05067)
T1 construct: To assure monomerisation of biotinylated Aβ1-42 (Anaspec #23523-0.5) the peptide was thoroughly monomerised; purchased Anaspec 23523-0.5
Assay: Inhibition of Abeta oligomerisation (biotinylated Aβ1-42, neutravidin plate, streptavidin-HRP)
Type: biochemical
Details: inhibition of Aβ1-42 aggregation, approximately 12 nM Aβ1-42, PBS pH 7.4, 2% DMSO, 30 min RT

T1 sequence (P05067 672-713 limits assumed): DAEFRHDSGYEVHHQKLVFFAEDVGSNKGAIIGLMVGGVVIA

SMILES | IC50
CC(=O)NCCc1cc(-c2ccc(C(=O)O)s2)sc1-c1ccc(-c2sc(-c3ccc(C(=O)O)s3)cc2CCNC(C)=O)s1 [Example 7, 5-(5-{5-[5-(5-Carboxythiophen-2-yl)-3-(2-acetamidoethyl)thiophen-2-yl]thiophen-2-yl}-4-(2-acetamidoethyl)thiophen-2-yl)thiophene-2-carboxylic acid] | 3.98 µM
NCCc1ccsc1-c1ccc(-c2sccc2CCN)s1 [Example 8, 2-(2-{5-[3-(2-Aminoethyl)thiophen-2-yl]thiophen-2-yl}thiophen-3-yl)ethan-1-amine] | 15.8 µM
O=C(O)Cc1cc(-c2ccccc2C(=O)O)sc1-c1ccc(-c2sc(-c3ccccc3C(=O)O)cc2CC(=O)O)s1 [Example 11, 2-[4-(Carboxymethyl)-5-{5-[3-(carboxymethyl)-5-(2-carboxyphenyl)thiophen-2-yl]thiophen-2-yl}thiophen-2-yl]benzoic acid] | 12.6 µM
O=C(O)Cc1cc(-c2cccnc2)sc1-c1ccc(-c2sc(-c3cccnc3)cc2CC(=O)O)s1 [Example 15, 2-(2-{5-[3-(Carboxymethyl)-5-(pyridin-3-yl)thiophen-2-yl]thiophen-2-yl}-5-(pyridin-3-yl)thiophen-3-yl)acetic acid] | 50.1 µM
CS(=O)(=O)c1cccc(-c2cc(CC(=O)O)c(-c3ccc(-c4sc(-c5cccc(S(C)(=O)=O)c5)cc4CC(=O)O)s3)s2)c1 [Example 22, 2-(2-{5-[3-(Carboxymethyl)-5-(3-methanesulfonylphenyl)thiophen-2-yl]thiophen-2-yl}-5-(3-methanesulfonylphenyl)thiophen-3-yl)acetic acid] | 2.51 µM
CNS(=O)(=O)c1ccc(-c2cc(CC(=O)O)c(-c3ccc(-c4sc(-c5ccc(S(=O)(=O)NC)cc5)cc4CC(=O)O)s3)s2)cc1 [Example 23, 2-(2-{5-[3-(Carboxymethyl)-5-[4-(methylsulfamoyl)phenyl]thiophen-2-yl]thiophen-2-yl}-5-[4-(methylsulfamoyl)phenyl]thiophen-3-yl)acetic acid] | 3.16 µM
C[S+]([O-])c1cccc(-c2cc(CC(=O)O)c(-c3ccc(-c4sc(-c5cccc([S+](C)[O-])c5)cc4CC(=O)O)s3)s2)c1 (centres unmarked) [Example 24, 2-(2-{5-[3-(Carboxymethyl)-5-(3-methanesulfinylphenyl)thiophen-2-yl]thiophen-2-yl}-5-(3-methanesulfinylphenyl)thiophen-3-yl)acetic acid] | 10 µM
O=C(O)Cc1ccsc1-c1ccc(-c2sc(-c3cccc(-c4cc(CC(=O)O)c(-c5ccc(-c6sccc6CC(=O)O)s5)s4)c3)cc2CC(=O)O)s1 [Example 34, 2-(2-{5-[3-(Carboxymethyl)-5-{3-[4-(carboxymethyl)-5-{5-[3-(carboxymethyl)thiophen-2-yl]thiophen-2-yl}thiophen-2-yl]phenyl}thiophen-2-yl]thiophen-2-yl}thiophen-3-yl)acetic acid] | 0.794 µM
CS(=O)(=O)c1ccc(-c2sc(-c3ccc(-c4cc(CC(=O)O)c(-c5ccc(S(C)(=O)=O)cc5)s4)s3)cc2CC(=O)O)cc1 [Example 36, 2-(5-{5-[4-(Carboxymethyl)-5-(4-methanesulfonylphenyl)thiophen-2-yl]thiophen-2-yl}-2-(4-methanesulfonylphenyl)thiophen-3-yl)acetic acid] | 5.01 µM
O=C(O)Cc1ccsc1-c1ccc(-c2sc(-c3ccc(-c4cc(CC(=O)O)c(-c5ccc(-c6sccc6CC(=O)O)cc5)s4)cc3)cc2CC(=O)O)cc1 [Example 38, 2-(2-{4-[3-(Carboxymethyl)-5-{4-[4-(carboxymethyl)-5-{4-[3-(carboxymethyl)thiophen-2-yl]phenyl}thiophen-2-yl]phenyl}thiophen-2-yl]phenyl}thiophen-3-yl)acetic acid] | 1.58 µM
CS(=O)(=O)c1ccc(-c2cc(CCN)c(-c3ccc(-c4sc(-c5ccc(S(C)(=O)=O)cc5)cc4CCN)s3)s2)cc1 [Example 41, 2-(2-{5-[3-(2-Aminoethyl)-5-(4-methanesulfonylphenyl)thiophen-2-yl]thiophen-2-yl}-5-(4-methanesulfonylphenyl)thiophen-3-yl)ethan-1-amine] | 0.794 µM
O=C(O)Cc1cc(-c2ccc(-c3ccccc3C(=O)O)s2)sc1-c1ccc(-c2sc(-c3ccc(-c4ccccc4C(=O)O)s3)cc2CC(=O)O)s1 [Example 43, 2-{5-[4-(Carboxymethyl)-5-{5-[3-(carboxymethyl)-5-[5-(2-carboxyphenyl)thiophen-2-yl]thiophen-2-yl]thiophen-2-yl}thiophen-2-yl]thiophen-2-yl}benzoic acid] | 3.98 µM
O=C(O)CCc1cc(-c2ccc(C(=O)O)s2)sc1-c1ccc(-c2sc(-c3ccc(C(=O)O)s3)cc2CCC(=O)O)s1 [Example 53, 5-[4-(2-Carboxethyl)-5-{5-[3-(2-carboxyethyl)-5-(5-carboxythiophen-2-yl)thiophen-2-yl]thiophen-2-yl}thiophen-2-yl]thiophene-2-carboxylic acid] | 3.98 µM
O=C(O)Cc1cc(-c2ccc(-c3cc(CC(=O)O)c(-c4ccc(-c5ccc(C(=O)O)cc5)s4)s3)s2)sc1-c1ccc(-c2ccc(C(=O)O)cc2)s1 [Example 54, 4-{5-[3-(Carboxymethyl)-5-{5-[4-(carboxymethyl)-5-[5-(4-carboxyphenyl)thiophen-2-yl]thiophen-2-yl]thiophen-2-yl}thiophen-2-yl]thiophen-2-yl}benzoic acid] | 1.26 µM
O=C(O)Cc1cc(Cl)sc1-c1ccc(-c2sc(-c3ccc(-c4cc(CC(=O)O)c(-c5ccc(-c6sc(Cl)cc6CC(=O)O)s5)s4)s3)cc2CC(=O)O)s1 [Example 58, 2-(2-{5-[3-(Carboxymethyl)-5-{5-[4-(carboxymethyl)-5-{5-[3-(carboxymethyl)-5-chlorothiophen-2-yl]thiophen-2-yl}thiophen-2-yl]thiophen-2-yl}thiophen-2-yl]thiophen-2-yl}-5-chlorothiophen-3-yl)acetic acid] | 0.398 µM

Results, then the molecule that gave them:

IC50 | SMILES
7.94 µM | O=C(O)Cc1cc(-c2cccc(C(=O)O)c2)sc1-c1ccc(-c2sc(-c3cccc(C(=O)O)c3)cc2CC(=O)O)s1 [Example 10, 3-[4-(Carboxymethyl)-5-{5-[3-(carboxymethyl)-5-(3-carboxyphenyl)thiophen-2-yl]thiophen-2-yl}thiophen-2-yl]benzoic acid]
1.58 µM | O=C(O)Cc1cc(-c2cccs2)sc1-c1ccc(-c2sc(-c3ccc(C(=O)O)s3)cc2CC(=O)O)s1 [Example 12, 5-[4-(Carboxymethyl)-5-{5-[3-(carboxymethyl)-5-(thiophen-2-yl)thiophen-2-yl]thiophen-2-yl}thiophen-2-yl]thiophene-2-carboxylic acid]
7.94 µM | O=C(O)Cc1cc(-c2cccnc2)sc1-c1ccc(-c2sc(-c3ccc(C(=O)O)s3)cc2CC(=O)O)s1 [Example 13, 5-[4-(Carboxymethyl)-5-{5-[3-(carboxymethyl)-5-(pyridin-3-yl)thiophen-2-yl]thiophen-2-yl}thiophen-2-yl]thiophene-2-carboxylic acid]
2 µM | O=C(O)Cc1cc(-c2cccc(C(=O)O)c2)sc1-c1ccc(-c2sc(-c3ccc(C(=O)O)s3)cc2CC(=O)O)s1 [Example 14, 5-[4-(Carboxymethyl)-5-{5-[3-(carboxymethyl)-5-(3-carboxyphenyl)thiophen-2-yl]thiophen-2-yl}thiophen-2-yl]thiophene-2-carboxylic acid]
3.98 µM | O=C(O)Cc1cc(-c2ccc(-c3ccc(C(=O)O)cc3)s2)sc1-c1ccc(-c2sc(-c3ccc(-c4ccc(C(=O)O)cc4)s3)cc2CC(=O)O)s1 [Example 19, 4-{5-[4-(Carboxymethyl)-5-{5-[3-(carboxymethyl)-5-[5-(4-carboxyphenyl)thiophen-2-yl]thiothiophen-2-yl]thiophen-2-yl}thiophen-2-yl]thiophen-2-yl}benzoic acid]
1 µM | O=C(O)Cc1cc(-c2ccc(-c3cccc(C(=O)O)c3)s2)sc1-c1ccc(-c2sc(-c3ccc(-c4cccc(C(=O)O)c4)s3)cc2CC(=O)O)s1 [Example 20, 3-{5-[4-(Carboxymethyl)-5-{5-[3-(carboxymethyl)-5-[5-(3-carboxyphenyl)thiophen-2-yl]thiophen-2-yl]thiophen-2-yl}thiophen-2-yl]thiophen-2-yl}benzoic acid]
5.01 µM | CS(=O)(=O)c1ccc(-c2sc(-c3ccc(-c4cc(CC(=O)O)c(-c5ccc(S(C)(=O)=O)cc5)s4)cc3)cc2CC(=O)O)cc1 [Example 37, 2-(5-{4-[4-(Carboxymethyl)-5-(4-methanesulfonylphenyl)thiophen-2-yl]phenyl}-2-(4-methanesulfonylphenyl)thiophen-3-yl)acetic acid]
1.26 µM | O=C(O)Cc1ccsc1-c1ccc(-c2sc(-c3ccc(-c4cc(CC(=O)O)c(-c5ccc(-c6sccc6CC(=O)O)cc5)s4)s3)cc2CC(=O)O)cc1 [Example 40, 2-(5-{5-[4-(Carboxymethyl)-5-{4-[3-(carboxymethyl)thiophen-2-yl]phenyl}thiophen-2-yl]thiophen-2-yl}-2-{4-[3-(carboxymethyl)thiophen-2-yl]phenyl}thiophen-3-yl)acetic acid]
0.251 µM | NCCc1ccsc1-c1ccc(-c2sc(-c3ccc(-c4cc(CCN)c(-c5ccc(-c6sccc6CCN)s5)s4)s3)cc2CCN)s1 [Example 42, 2-(2-{5-[3-(2-Aminoethyl)-5-{5-[4-(2-aminoethyl)-5-{5-[3-(2-aminoethyl)thiophen-2-yl]thiophen-2-yl}thiophen-2-yl]thiophen-2-yl}thiophen-2-yl]thiophen-2-yl}thiophen-3-yl)ethan-1-amine]
1.58 µM and 7.94 µM | CS(=O)(=O)c1ccc(-c2cc(CCC(=O)O)c(-c3ccc(-c4sc(-c5ccc(S(C)(=O)=O)cc5)cc4CCC(=O)O)s3)s2)cc1 [Example 51, 3-(2-{5-[3-(2-Carboxyethyl)-5-(4-methanesulfonylphenyl)thiophen-2-yl]thiophen-2-yl}-5-(4-methanesulfonylphenyl)thiophen-3-yl)propanoic acid]
0.398 µM | O=C(O)Cc1cccc(-c2ccc(-c3cc(CC(=O)O)c(-c4ccc(-c5sc(-c6ccc(-c7cccc(CC(=O)O)c7)s6)cc5CC(=O)O)s4)s3)s2)c1 [Example 57, 2-(2-{5-[3-(Carboxymethyl)-5-{5-[3-(carboxymethyl)phenyl]thiophen-2-yl}thiophen-2-yl]thiophen-2-yl}-5-{5-[3-(carboxymethyl)phenyl]thiophen-2-yl}thiophen-3-yl)acetic acid]
